Test results reported in patent publication US20050256179A1, “Selective pharmacologic inhibition of protein trafficking and related methods of treating human diseases” (priority 2003, published 2005).

Key:
GM-130 = GM-130 expression; assay type: cell-based; settings: data not shown
Text: (§1) Likewise, the non-resident golgi protein Rab6 appeared to be unaffected in some cell types, as illustrated in FIG. 31.

HSV = experiment: Guinea pig topical HSV model; assay type: in vivo; settings: data not shown
Experimental: Representative viruses from families likely to utilize the golgi were tested. […] (data not shown).

B16-F10 cells = experiment: PowerBlot screen of expression of over 950 proteins; assay type: cell-based, mouse; settings: 100 ng/ml, 16 hr
Experimental: A second series of experiments tested the activity of AVP 893 on the expression of over 950 proteins by Western blotting in vitro (in triplicate); methods detailed below. B16 tumor cells were chosen for this screen and a 16 hour duration of AVP 893 treatment was selected to optimize the number of proteins that might be modified by drug. […] B16-F10 cells were cultured for 16 hr in the presence or absence of 100 ng/ml AVP 893. Samples were harvested and lysates prepared according to instructions supplied by Becton-Dickinson. Samples were placed on dry ice and submitted to the same for expression analysis of 950 proteins. […] Although both proteins have entirely different functions in the cell, and have not been linked (apparently) in the scientific literature, there is a rational explanation for the changes noted in each protein, as described below.

GS15 = GS15 expression in 3T3 cells; assay type: cell-based; settings: beginning around 2 to 4 hrs of exposure
Text: as §1

Rab1a = Rab1a expression by Western blotting; assay type: cell-based; settings: 3T3 cells
Experimental: Protein samples (in sample buffer) were boiled for 1-3 minutes and put on ice. Same amount of protein were loaded on the NuPage gel (InVitrogen). After the electrophoresis was complete, proteins were transferred from the gel to a PVDF membrane using the electro-blotting apparatus from InVitrogen; the voltage was set to 25 for 2-3 hr. Block non-specific binding by incubating membrane with 5% milk (in PBS, 0.1% tween 20) for at least 30 min at room temperature or overnight at 4° C. The blocked membrane was incubated with primary antibody (See TABLE 2) diluted in 5% milk for 1 hour at room temperature. Optimal antibody dilution depends on the company, the amount of protein. Dilutions of 1:1000 were generally used for the primary antibodies from Santa Cruz. The membrane was washed with PBS, 0.1% tween 3-4 times 5 mins. The membrane was incubated for 30-60 minutes at room temperature with horseradish peroxidase (HRP) conjugated secondary antibody diluted in 5% milk. We usually used 1:4000 dilution for the secondary antibody from Santa Cruz. The membrane was washed 3-4 times with PBS, 0.1% tween, each time 15 minutes. The detection solutions A and B were mixed in a ratio 40:1 and Pipetted onto the membrane, and incubated for 5 min at RT. A sheet of Hyper film ECL was placed on the top of the membrane in the dark and exposed for 1 min, or adjust accordingly. […]

Mannosidase II = Mannosidase II immunocytochemistry; assay type: cell-based
Experimental: GS15, GS28, GPP130, and Mannosidase II, sparing the golgi structural protein GM-130 and having little effect on the Rab GTPase Rab6. Furthermore, these affects were most pronounced following overnight (16-20 hr) incubations with AVP 893, although some affects at early time points were seen. These conclusions were drawn from the western blot analysis (FIG. 29), as well as from the immunocytochemical studies (FIGS. 30-31).
Additional evidence that AVP 893 has unique activity against resident golgi proteins (e.g. Mannosidase II), was found using both shorter durations of drug exposure and immunocytochemistry instead of western blot analysis (FIG. 43).

[1] = test system: PC12 pheochromocytoma cells; experiment: Norepinephrine release and dopamine re-uptake in PC12 cells; assay type: cell-based; settings: not shown
Text: The proposed mechanism of the AVP compounds on intracellular protein transit also allows certain predictions as to other effects and non-effects that these compounds might share. For example, inhibition of vesicle fusion or budding between the ER and golgi should not affect exocytosis as would be expected of a post-golgi active compound such as Monensin. AVP 893 has minimal effects on the expression of proteins involved in exocytosis, particularly VAMP, SNAP23 (non-neuronal cells), and SNAP25 (neuronal cells).

B16F10 cells = experiment: Density gradient centrifugation, intracellular protein distribution; assay type: cell-based; settings: B16 cells, 16 hours drug
Experimental: To test this possibility directly, cells were cultured with and without drug for 16-20 hours, harvested, lysed, and layered on top of a gradient of varying density iodixanol-containing fractions (2.5-30%). The gradients were centrifuged for 2 to 18 hours at 56K x g, collected, and tested for resident proteins via Western blot. Fractions were probed with antibodies specific for calnexin (ER-specific marker), γ-adaptin (golgi), and Rab5a (vesicles). […] FIGS. 34 and 35 also show the unfractionated levels of Rab6 and Rab1B, respectively, that were obtained prior to density gradient centrifugation. No difference in the expression of these 3 marker proteins was observed between the control and drug-treated cells.
B16F10 cells were seeded into 175 cm2 flasks one day prior to drug application. On the subsequent day, fresh media +/−drug was applied to the cultures. 16 hours later, the cells were washed with cold Dulbecco's PBS, then harvested in ice-cold homogenization buffer: 130 mM KCl, 25 mM NaCl, 1 mM EGTA, 25 mM Tris pH7.4, plus 15 ul protease inhibitor per 5 mL buffer. 1 mL of buffer was used per flask, and the cells were scrapped off into 14 mL round-bottom culture tubes and kept on ice. The harvested cells were then homogenized with a tissue homogenizer (Polytron PT10/35), transferred into 2 mL centrifuge tubes, and spun at 1,000 rpm for 8 min at 4° C. […]

O=C(Nc1ccc(-c2nc3cc(NC(=O)C4CCCCC4)ccc3[nH]2)cc1)C1CCCCC1 [AVP 893]
GM-130 expression (GM-130): did not appear to be affected | viral activity in vivo (HSV): may inhibit viral activity in vivo | number of proteins consistently and significantly modified of over 950 (B16-F10 cells): 6 | GS15 staining (GS15): greatly diminished | Rab1a expression (Rab1a): mild response | Mannosidase II staining pattern (Mannosidase II; 1 hr of treatment, immunocytochemistry): no apparent effect | Mannosidase II in golgi (Mannosidase II; after 4 hrs of application): little to no discernible amount of the enzyme remaining after 4 hrs | release of norepinephrine, re-uptake of dopamine [1]: does not affect the release of norepinephrine or the re-uptake of dopamine | distribution of Rab 1b and Rab 6 in gradient fractions (B16F10 cells): retained in the ER at the expense of the golgi compartment
